Laboratory results published in US9493487B2, “3-(1H-imidazo[4,5-C]pyridin-2-YL)-1H-pyrazolo[3,4-B]pyridine and therapeutic uses thereof” (Samumed, LLC, priority 2014, dated 2016).

Experiments:
Type in all cases: cell-based
[1] = system: Wnt activity (Sp5-Luc reporter, SW480 colon carcinoma cells); assay: Sp5-Luc Wnt reporter gene assay in SW480 colon carcinoma cells; settings: Homo sapiens; SW480 cells stably expressing Sp5-Luc reporter; 42 h incubation; BrightGlo luminescence normalized to DMSO
Method in brief: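 IC50 values come from variable-slope four-parameter fits of luciferase signal normalized to DMSO wells. Stable Sp5-Luc reporter SW480 colon carcinoma cells were exposed to compounds in a 3-fold dilution series (source plates from 10 mM stock) for forty-two hours at 37 °C.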

[2] = system: primary human fibroblasts derived from IPF patients (LL29 cells); assay: Inhibition of TGF-β1-induced fibrosis (αSMA staining) in primary human fibroblasts from IPF patients; settings: Fibroblast, 96 h, TGF-β1 20 ng/mL, 4 days, 11-point dose-response 10 μM to 1.87 nM
Method in brief: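 LL29 cells in F12 with 1% FBS were exposed to compound (11-point, 10 μM–1.87 nM, 0.1% DMSO) plus TGF-β1 20 ng/mL for 4 days at 37° C. Imaged αSMA-positive fraction of live (SYTOX-negative) cells, normalized to TGF-β1/DMSO wells; EC50 by non-linear regression of triplicates.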

[3] = system: primary human mesenchymal stem cells (hMSCs); assay: Chondrogenesis induction screen in primary human mesenchymal stem cells (nodule count, Rhodamine B/Nile Red); settings: 144 h, 6 days, concentration required to induce chondrogenesis equivalent to TGF-β3 (10 ng/mL), read-out: Conc (nM) of 100% TGF-β3 activity
Protocol: The above synthesized compounds were screened using primary human mesenchymal stem cells (hMSCs) to determine their ability to induce chondrogenesis (process by which cartilage is developed).
Primary human mesenchymal stem cells (hMSCs) were purchased from Lonza (Walkersville, Md.) and expanded in Mesenchymal Stem Cell Growth Media (Lonza). Cells between passage 3 and 6 were used for the experiments.
Each compound was dissolved in DMSO as a 10 mM stock and used to prepare compound source plates. Serial dilution (1:3, 6-point dose-response curves from 2700 nM to 10 nM) and compound transfer was performed using the ECHO 550 (Labcyte, Sunnyvale, Calif.) into 96-well clear bottom assay plates (Greiner Bio-One) with appropriate DMSO backfill for a final DMSO concentration of 0.03%. hMSCs were plated at 20,000 cells/well in 250 μL/well Incomplete Chondrogenic Induction Medium (Lonza; DMEM, dexamethasone, ascorbate, insulin-transferrin-selenium [ITS supplement], gentamycin-amphotericin [GA-1000], sodium pyruvate, proline and L-glutamine). TGF-β3 (10 ng/mL) was used as a positive control for differentiation while negative control wells were treated with 75 nL DMSO for normalization and calculating EC50 values. Cells were incubated at 37° C. and 5% CO2 for 6 days. To image chondrogenic nodules, the cells were fixed using 4% formaldehyde (Electron Microscopy Sciences), and stained with 2 μg/mL Rhodamine B (Sigma-Aldrich) and 20 μM Nile Red (Sigma-Aldrich) [Johnson K., et. al, A Stem Cell-Based Approach to Cartilage Repair, Science, (2012), 336(6082), 717-721]. The nodules imaged (4 images per well at 4× magnification) by excitation at 531 nm and emission at 625 nm and quantified using the CellInsight CX5 (Thermo Scientific). Number of nodules in each well was normalized to the average of 3 DMSO treated wells on the same plate using Excel (Microsoft Inc.). The normalized averages (fold change over DMSO) of 3 replicate wells for each compound concentration were calculated. Due to solubility limitations of some of the compounds, curve fitting was incomplete leading to inaccurate EC50 determinations.
Using TGF-β3 as a positive control, the concentration of test compounds required to induce equivalent levels of chondrogenesis is reported. In addition, the maximum activity of each compound and the respective dose that each compound reached maximum chondrogenesis activity is reported.

SMILES	IC50 [1] [nM]	EC50 [2] [nM]	EC (100% TGF-beta3 activity) [3] [nM]
CC(C)Nc1cncc(-c2cnc3[nH]nc(-c4nc5c(-c6cc(F)cc(NCCN(C)C)c6)nccc5[nH]4)c3c2)c1 [Compound 428, N^1-(3-Fluoro-5-(2-(5-(5-(isopropylamino)pyridin-3-yl)-1H-pyrazolo[3,4-b]pyridin-3-yl)-1H-imidazo[4,5-c]pyridin-4-yl)phenyl)-N^2,N^2-dimethylethane-1,2-diamine]	15	20	82.9
O=C(Nc1cncc(-c2cnc3[nH]nc(-c4nc5c(-c6ccc(F)cc6)nccc5[nH]4)c3c2)c1)C1CCC1 [Compound 46, N-(5-(3-(4-(4-Fluorophenyl)-1H-imidazo[4,5-c]pyridin-2-yl)-1H-pyrazolo[3,4-b]pyridin-5-yl)pyridin-3-yl)cyclobutanecarboxamide]	5	253	80.6
Cc1ccncc1-c1cnc2[nH]nc(-c3nc4c(-c5cc(F)cc(CNS(C)(=O)=O)c5)nccc4[nH]3)c2c1 [Compound 395, N-(3-Fluoro-5-(2-(5-(4-methylpyridin-3-yl)-1H-pyrazolo[3,4-b]pyridin-3-yl)-1H-imidazo[4,5-c]pyridin-4-yl)benzyl)methanesulfonamide]	8	9	92.8
O=C(Nc1cncc(-c2cnc3[nH]nc(-c4nc5c(-c6cccs6)nccc5[nH]4)c3c2)c1)C1CC1 [Compound 305, N-(5-(3-(4-(Thiophen-2-yl)-1H-imidazo[4,5-c]pyridin-2-yl)-1H-pyrazolo[3,4-b]pyridin-5-yl)pyridin-3-yl)cyclopropanecarboxamide]	9	–	54.9
Nc1cncc(-c2cnc3[nH]nc(-c4nc5c(-c6ccccc6F)nccc5[nH]4)c3c2)c1 [Compound 55, 5-(3-(4-(2-Fluorophenyl)-1H-imidazo[4,5-c]pyridin-2-yl)-1H-pyrazolo[3,4-b]pyridin-5-yl)pyridin-3-amine]	5.9	283	32.2
Cc1cn(-c2nccc3[nH]c(-c4n[nH]c5ncc(-c6cncc(NC(=O)CC(C)C)c6)cc45)nc23)cn1 [Compound 184, 3-Methyl-N-(5-(3-(4-(4-methyl-1H-imidazol-1-yl)-1H-imidazo[4,5-c]pyridin-2-yl)-1H-pyrazolo[3,4-b]pyridin-5-yl)pyridin-3-yl)butanamide]	4.8	–	5.4
CCC(=O)Nc1cncc(-c2cnc3[nH]nc(-c4nc5c(-c6cccc(F)c6)nccc5[nH]4)c3c2)c1 [Compound 1, N-(5-(3-(4-(3-Fluorophenyl)-1H-imidazo[4,5-c]pyridin-2-yl)-1H-pyrazolo[3,4-b]pyridin-5-yl)pyridin-3-yl)propionamide]	5.8	62	117
Cc1ccc(-c2nccc3[nH]c(-c4n[nH]c5ncc(-c6cncc(N)c6)cc45)nc23)s1 [Compound 341, 5-(3-(4-(5-Methylthiophen-2-yl)-1H-imidazo[4,5-c]pyridin-2-yl)-1H-pyrazolo[3,4-b]pyridin-5-yl)pyridin-3-amine]	0.9	9	58.2
CN(C)CCOc1cncc(-c2cnc3[nH]nc(-c4nc5c(-c6cccc(F)c6)nccc5[nH]4)c3c2)c1 [Compound 895, 2-((5-(3-(4-(3-Fluorophenyl)-1H-imidazo[4,5-c]pyridin-2-yl)-1H-pyrazolo[3,4-b]pyridin-5-yl)pyridin-3-yl)oxy)-N,N-dimethylethan-1-amine]	343	≥ 9990	–
CC(=O)c1ccc(-c2nccc3[nH]c(-c4n[nH]c5ncc(-c6cccnc6)cc45)nc23)s1 [Compound 368, 1-(5-(2-(5-(Pyridin-3-yl)-1H-pyrazolo[3,4-b]pyridin-3-yl)-1H-imidazo[4,5-c]pyridin-4-yl)thiophen-2-yl)ethan-1-one]	10.4	241	84.6
Cc1ncc(-c2cnc3[nH]nc(-c4nc5c(-c6cccc(F)c6)nccc5[nH]4)c3c2)n1C [Compound 889, 5-(1,2-Dimethyl-1H-imidazol-5-yl)-3-(4-(3-fluorophenyl)-1H-imidazo[4,5-c]pyridin-2-yl)-1H-pyrazolo[3,4-b]pyridine]	12	9	152
CN1CCN(c2nccc3[nH]c(-c4n[nH]c5ncc(-c6cncc(CN7CCCCC7)c6)cc45)nc23)CC1 [Compound 223, 3-(4-(4-Methylpiperazin-1-yl)-1H-imidazo[4,5-c]pyridin-2-yl)-5-(5-(piperidin-1-ylmethyl)pyridin-3-yl)-1H-pyrazolo[3,4-b]pyridine]	> 10000	≥ 9990	–
Cc1ccncc1-c1cnc2[nH]nc(-c3nc4c(-c5ccncc5)nccc4[nH]3)c2c1 [Compound 109, 5-(4-Methylpyridin-3-yl)-3-(4-(pyridin-4-yl)-1H-imidazo[4,5-c]pyridin-2-yl)-1H-pyrazolo[3,4-b]pyridine]	> 10000	≥ 9990	–
CS(=O)(=O)NCc1cc(F)cc(-c2nccc3[nH]c(-c4n[nH]c5ncc(-c6cncnc6)cc45)nc23)c1 [Compound 416, N-(3-Fluoro-5-(2-(5-(pyrimidin-5-yl)-1H-pyrazolo[3,4-b]pyridin-3-yl)-1H-imidazo[4,5-c]pyridin-4-yl)benzyl)methanesulfonamide]	> 10000	≥ 9990	–
Cn1cc(-c2cnc3[nH]nc(-c4nc5c(-c6cccc(F)c6)nccc5[nH]4)c3c2)cn1 [Compound 888, 3-(4-(3-Fluorophenyl)-1H-imidazo[4,5-c]pyridin-2-yl)-5-(1-methyl-1H-pyrazol-4-yl)-1H-pyrazolo[3,4-b]pyridine]	12	14	74.9
CCCC(=O)Nc1cncc(-c2cnc3[nH]nc(-c4nc5c(-c6ccsc6)nccc5[nH]4)c3c2)c1 [Compound 251, N-(5-(3-(4-(Thiophen-3-yl)-1H-imidazo[4,5-c]pyridin-2-yl)-1H-pyrazolo[3,4-b]pyridin-5-yl)pyridin-3-yl)butyramide]	9.9	73	52.8
CC(C)Nc1cncc(-c2cnc3[nH]nc(-c4nc5c(-c6ccoc6)nccc5[nH]4)c3c2)c1 [Compound 272, 5-(3-(4-(Furan-3-yl)-1H-imidazo[4,5-c]pyridin-2-yl)-1H-pyrazolo[3,4-b]pyridin-5-yl)-N-isopropylpyridin-3-amine]	13	9	72
Cc1ccc(-c2nccc3[nH]c(-c4n[nH]c5ncc(-c6cncc(CN7CCCCC7)c6)cc45)nc23)s1 [Compound 353, 3-(4-(5-Methylthiophen-2-yl)-1H-imidazo[4,5-c]pyridin-2-yl)-5-(5-(piperidin-1-ylmethyl)pyridin-3-yl)-1H-pyrazolo[3,4-b]pyridine]	576	9	–
